Patent US12678438B2, “Treatment of cancer with CDK inhibitors” (THE TRUSTEES OF THE UNIVERSITY OF PENNSYLVANIA, priority 2019, dated 2026)
One block for each compound: values may come before it.

What was measured:
Assay type in all cases: cell-based, human
p-MED1 (p-T1457 MED1) = experiment: Immunoblot of p-MED1 in AR-positive PCa cell lines (VCaP, LNCaP, 22RV1); details: LNCaP
Method: Cell lysates were prepared with RIPA buffer (Boston Bioproducts, BP-115DG)-10 mM Tris-HCl pH 7.5, 1 mM EDTA, 400 mM NaCl, 0.5% NP-40 and 1 mM DTT, supplemented with protease inhibitor cocktail (Pierce, A32965) and phosphatase inhibitor (Thermo, 1861280). For immunoblotting 200 μg total protein extract was boiled in sample buffer and 15-25 μg aliquots were separated by SDS-PAGE and transferred onto Polyvinylidene Difluoride membrane (GE Healthcare, IPVH00010). The membrane was incubated for one hour in blocking buffer [Tris-buffered saline, 0.1% Tween (TBS-T), 5% nonfat dry milk followed by overnight incubation on a rocker at 4° C. with the primary antibody. Following a wash with TBS-T, the blot was incubated with horseradish peroxidase-conjugated secondary antibody for 2 hrs on a rocker at room temperature. The blots were washed again and signals were visualized using enhanced chemiluminescence system as per manufacturer's protocol (GE Healthcare) or Kwik Quant Imager (Kindle Biosciences). Primary antibodies used in the immunoblotting (IB), immunoprecipitation (IP), and Chromatin Immunoprecipitation sequencing (ChIP-seq) assays are as follows: AR_IP, IB, ChIP-Seq (Millipore, 06-680); pS81-AR_IB (Millipore, 07-1375-EMD); RNA Pol II_IP, IB (Abcam, ab5408); ERG_IB (Abcam, a92513); PSA_IB (Dako, A0562); H3-acetyl K27_IP, IB, ChIP Seq (Abcam, ab32104) cPARP_IB (Cell Signaling Technology, 9541s); Cleaved caspase-3_IB (Cell Signaling Technology, 9664t); CDK7_IP, IB (Cell Signaling Technology, 2916s); CDK9_IP, IB (Cell Signaling Technology, 2316s); CDK12_IB (Cell Signaling Technology, 11973S); CDK13_IB (Sigma Cat. #ABE1860); Cyclin H_IB (Cell Signaling Technology, 2927T); HA_IP, IB (Cell Signaling Technology, 2367s); ERK1/2_IP, IB (Cell Signaling Technology, 9107s); phospho-ERK1/2_IB (Cell Signaling Technology, 9101s); phospho-Threonine_IB (Cell Signaling Technology, 9381s); PP2A alpha_IB (Abcam, ab32104); phospho-MED1_IB (Abcam, ab60950); Anti-GST_IB (Cell Signaling Technology, 2624); Anti-AKT_IB (Cell Signaling Technology, 9272); Anti-phosphoAKT_IB(Cell Signaling Technology, 4060); Anti-phospho-AR (Ser-515) _IB (Abeam, ab128250); Anti-RNA Pol 'LIB (Abeam, ab5408); Anti-phospho-pol II (Ser-5)_IB (Abeam, ab ab5095); Anti-phospho-CDK7 (Tlu-170) _IB (Millipore, ABS567); MED1_IP, IB, ChIP Seq (Bethyl, abA300-793A), Ki67_IHC (Cell Signaling Technology, 9661), and GAPDH (14C10), IB (Cell Signaling Technology, 3683s) for loading control.

AR target genes = experiment: qRT-PCR of DHT-induced AR target gene expression; details: LNCaP and VCaP, 10 μM enzalutamide
Method: For AR signaling stimulation experiments, cells were plated in complete media at required confluency. After 24 h cells were washed with DPBS and cultured in RPMI/DMEM without Phenol Red (Invitrogen, 11835030) and 10% charcoal-dextran stripped FBS (Gemini BioProducts, 100-119) for 72 h. Cells were then stimulated with 10 nM DHT for the specific time points.
Total RNA was isolated from cells using miRNeasy Mini Kit (Qiagen, 74106) and cDNA was synthesized from 1 μg total RNA using SuperScriptIV (Life Technologies, 18090200). qRT-PCR was performed using Fast SYBR Master Mix (Life Technologies, 4385617) or Taqman Fast Advance MMIX (Life Technologies, 4444964), and analyzed on QuantStudio3 (Applied Biosystems, USA). The target mRNA expression was quantified using ΔΔCt method, as normalized to GAPDH transcript levels. Primers were designed using Primer3 Input (version 0.4.0) (bioinfo.ut.ee/primer3-0.4.0/primer3) and synthesized by Integrated DNA Technologies.

[1] = tested on: MED1 and AR recruitment to the chromatin; experiment: ChIP-seq of genome-wide MED1 and AR binding; details: VCaP, 10 nM DHT plus 5 μM enzalutamide, 12 h
Method: ChIP was performed using iDeal ChIP-seq Kit for Transcription Factors (Diagenode, C01010170) according to manufacturer's protocol. In brief, the cells were crosslinked with 1% formaldehyde in culture medium for 10 min at room temperature. Cross-linking was terminated by the addition of 1/10 volume 1.25 M glycine for 5 min at room temperature followed by cell lysis and sonication (Bioruptor, Diagenode), resulting in an average chromatin fragment size of 200 bp. Chromatin equivalent to 5×10^6 cells was isolated and incubated with 10 μg antibody overnight at 4° C. (MED1, H3-acetyl K27, AR, and IgG (Diagenode). ChIP-seq libraries were prepared from the ChIP-enriched DNA samples using the TruSeq ChIP Library Preparation Kit (Illumina, IP-202-1012, IP-202-1024) and protocol. In brief, ChIP-enriched DNA (1-10 ng) was converted to blunt-ended fragments. A single A-base was added to fragment ends followed by ligation of Illumina adaptors. The adaptor-modified DNA fragments were enriched by PCR using the Illumina Barcode primers and Phusion DNA polymerase. PCR products were size selected using 3% NuSieve agarose gels (Lonza) followed by gel extraction using QIAEX II reagents (QIAGEN). Libraries were quantified with the Bioanalyzer 2100 (Agilent) and sequenced on the Illumina NextSeq 500 Sequencer (75 nucleotide read length).
Sequencing reads were quality checked with FASTQC (www.bioinformatics.babraham.ac.uk/projects/fastqc) and aligned to the GRCh37 (release 27) genome using the STAR v2.5.1 aligner with default settings. PCR duplicate reads in the aligned bam files were removed using samtools, bam files were converted to CPM normalized bigwig tracks using deeptools, and viewed using the Integrated Genomics Viewer or the UCSC genome browser. Single end reads were extended up to the fragment length (200 bp) along the read direction.
The enrichment peaks for the various transcription factors and histone marks were computed using MACS2, with default settings. Regions found to ubiquitously enriched across a number of next-generation sequencing experiments, also known as the blacklisted peaks (sites.google.com/site/anshulkundaje/projects/blacklists), were excluded in all subsequent analysis.

[2] = tested on: chromatin-bound p-MED1/MED1; experiment: Chromatin-bound protein extraction and immunoblot; details: DHT-stimulated LNCaP, 6 h; THZ1 100 nM, enzalutamide 5 μM
Method: Chromatin bound protein extraction was performed following the protocol described in Pawar et al. Briefly, 10 million cells were collected and washed with DPBS, and were resuspended in 250 μl Buffer A (10 mM HEPES pH 7.9, 10 mM KCl, 1.5 mM MgCl2, 0.34 M sucrose, 10% glycerol, 1 mM DTT) supplemented with 0.1% TritonX-100 and incubated on ice for 10 min. The nuclei pellet was collected by centrifugation at 1300×g for 5 min at 4° C., washed in Buffer A and centrifuged again with the same settings. The nuclear pellet was then resuspended in Buffer B (3 mM EDTA, 0.2 mM EGTA, 1 mM DTT) and incubated on ice for 30 min. The chromatin pellet was collected by centrifugation at 1700×g for 5 min at 4° C., washed in Buffer B and centrifuged again with the same settings. The proteins were incubated on ice in Buffer B with 150 mM NaCl for 20 min and centrifuged at 1700×g for 5 min to remove proteins soluble in 150 mM salt concentrations. The pellet was then incubated in Buffer B with 300 mM NaCl on ice for 20 min and centrifuged again at 1700×g to obtain the final chromatin pellet. The chromatin pellet was dissolved in sample buffer, sonicated for 15 seconds, and boiled at 95° C. for 10 min. Samples were analyzed using Immunoblot analysis as described previously. All buffers were supplemented with Pierce protease inhibitor and Halt protease & phosphatase inhibitors.

SMILES: COc1ccccc1-c1cc(Nc2cccc(CS(N)(=O)=O)c2)ncn1 [LDC]
p-MED1 levels (p-MED1 (p-T1457 MED1); VCaP, 22RV1, standard culture conditions, 24 h (THZ1 and LDC also with DHT stimulation)): no such effect on p-MED1 levels

SMILES: CN(C)CCCC(=O)Nc1ccc(C(=O)Nc2cccc(Nc3ncc(Cl)c(-c4c[nH]c5ccccc45)n3)c2)cc1 [THZ1-R]
MED1 phosphorylation (p-MED1 (p-T1457 MED1); 100 nM, 12 h): does not affect MEDI phosphorylation

MED1 chromatin association (ChIP-seq) [1]: completely abolished | average ChIP-seq signal for AR [1]: significantly reversed
SMILES: CNC(=O)c1ccc(N2C(=S)N(c3ccc(C#N)c(C(F)(F)F)c3)C(=O)C2(C)C)cc1F [enzalutamide]
DHT-induced AR target gene expression (AR target genes): AR target reversal | chromatin-bound levels of p-MED1/MED1 [2]: unable to completely dissociate p-MED1 from the chromatin
